Data on three compounds can be found in article PMC4754833, “Rilpivirine analogs potently inhibit drug-resistant HIV-1 mutants” (Retrovirology, 2016).

Read-outs that look alike come from different tables or passages of the source.

In experiment [1] the test system is WT HIV-1. Nature of the experiment: single round infection luciferase assay, WT HIV-1. As to conditions: Human immunodeficiency virus 1. Type of experiment: cell-based.
For experiment [2], the system named is HIV-1 RT mutant G190A. As to the kind of experiment: single round infection assay, G190A. As to conditions: for IC50: Human immunodeficiency virus 1. The experiment is classed as cell-based.
Experiment [3] concerns HIV-1 RT mutant G190S. As to the kind of experiment: single round infection assay, G190S. The experiment is classed as cell-based. As to conditions: Human immunodeficiency virus 1.
In experiment [4] the test system is HIV-1 RT mutant M230L. Nature of the experiment: single round infection assay, M230L. The experiment is classed as cell-based. As to conditions: for fold-change of IC50 of the mutant relative to WT: M230L vs WT; for IC50: ± SD, n=4, limit of detection 100 nM.
Experiment [5] deals with HIV-1 RT mutant V106A/F227L. Nature of the experiment: single round infection assay, V106A/F227L. Type of experiment: cell-based. The following applies: V106A/F227L vs WT.
Experiment [6] has as its system HIV-1 RT mutant E138K. As to the kind of experiment: single round infection assay, E138K. Type of experiment: cell-based. As to conditions: for fold-change of IC50 of the mutant relative to WT: E138K vs WT; for IC50: ± SD, n=4.
Experiment [7] concerns HIV-1 RT mutant K101E/M184I. As to the kind of experiment: single round infection assay, K101E/M184I. The following applies: for fold-change of IC50 of the mutant relative to WT: K101E/M184I vs WT. Type of experiment: cell-based. As to the method:
(§1) The human osteosarcoma cell line, HOS, was obtained from Dr. Richard Schwartz (Michigan State University, East Lansing, MI) and grown in Dulbecco’s modified Eagle’s medium (Invitrogen, Carlsbad, CA) supplemented with 5 % (v/v) fetal bovine serum, 5 % newborn calf serum, and penicillin (50 units/ml) plus streptomycin (50 µg/ml; Quality Biological, Gaithersburg, MD). Virion production and single-round infectivity assays were used to determine antiviral activity (IC50 values) of the compounds as previously described.
(§2) pNLNgoMIVR-ΔEnv.LUC has been described previously. The RT open reading frame was removed from pNLNgoMIVR-ΔEnv.LUC (digestion with SpeI and SalI) and inserted between the SpeI and SalI sites of pBluescript II KS+. Using that construct as the wild-type template, we prepared the following HIV-1 RT mutants using the QuikChange II XL (Stratagene, La Jolla, CA) site-directed mutagenesis protocol kit: L100I, K103N, Y181C, Y188L, H221Y, K103N/Y181C, G190A, G190S, M230L, P236L, L100I/K103N, K103N/P225H, V106A/G190A/F227L, V106A, L234I, V106A/F227L, V106A/L234I, V106A/F227L/L234I, E40K, D67E, K101E, V111A, E138K, M184I, M184V, K101E/M184I, K101E/M184V, E138K/M184I, E138K/M184V, K101P, Y181I, and K101P/V179I. The following sense oligonucleotides were used with matching cognate antisense oligonucleotides (not shown) (Integrated DNA Technologies, Coralville, IA) in the mutagenesis: L100I, 5′-[…]-3′; L100I 2-103, 5′-[…]-3′; K103N, 5′-[…]-3′; Y181C, 5′-[…]-3′; Y188L, 5′-[…]-3′; H221Y, 5′-[…]-3′; G190A, 5′-[…]-3′; G190S, 5′-[…]-3′; P225H, 5′-[…]-3′; F227, 5′-[…]-3′; M230L, 5′-[…]-3′; P236L, 5′-[…]-3′; V106A, 5′-[…]-3′; L234I, 5′-[…]-3′; E40K, 5′-[…]-3′; D67E, 5′-[…]-3′; K101E, 5′-[…]-3′; V111A, 5′-[…]-3′; E138K, 5′-[…]-3′; M184I, 5′-[…]-3′; M184V, 5′-[…]-3′; K101P, 5′-[…]-3′; Y181I, 5′-[…]-3′; K101P/V179I, 5′-[…]-3′. The double mutants K103N/Y181C, K103N/P225H, and L100I/K103N were made using the previously generated K103N mutant and the appropriate oligonucleotides to add the second mutation, Y181C, P225, and L100I respectively. The double mutants V106A/F227L and V106A/L234I were prepared using the previously generated V106A mutant and the appropriate oligonucleotides to add the second mutation, F227L and L234I, respectively. The double mutants K101E/M184I and K101E/M184V were constructed using the previously generated K101E mutant and the appropriate oligonucleotides to add the second mutation, M184I and M184V, respectively. The double mutants E138K/M184I and E138K/M184V were constructed using the previously generated E138K mutant and the appropriate oligonucleotides for the second mutation, M184I and M184V, respectively. The triple mutant V106A/F227L/L234I was made using the previously generated V106A/F227L double mutant and the appropriate oligonucleotides for the third mutation, L234I. The triple mutant V106A/G190A/F227L was constructed in a series of steps using the previously generated V106A mutant and the appropriate oligonucleotides for the second mutation, G190A, to generate the double mutant V106A/G190A, and then the triple mutant was made using double mutant V106A/G190A and oligonucleotides for the third mutation, F227L. The DNA sequence of each construct was verified by DNA sequence determination. The sequences encoding the mutant RTs were then subcloned into pNLNgoMIVR-ΔEnv.LUC (between the KpnI and SalI sites) to produce the mutant HIV-1 constructs. These DNA sequences were also checked independently by DNA sequence determination.
(§3) 10.1186/s12977-016-0244-2 The IC50 values (nM) of RPV and the RPV analogs were determined against the NNRTI resistant mutants were measured by using a single round infection assay, n = 4. The concentrations (nM) are measured by reductions in luciferase reporter activity followed by the standard deviations. […]

Experiment [8] deals with HIV-1 RT mutant E138K/M184I. As to the kind of experiment: single round infection assay, E138K/M184I. As to conditions: for fold-change of IC50 of the mutant relative to WT: E138K/M184I vs WT. The experiment is classed as cell-based.
The test system of experiment [9] is HIV-1 RT mutant E138K/M184V. Nature of the experiment: single round infection assay, E138K/M184V. The experiment is classed as cell-based. The following applies: for fold-change of IC50 of the mutant relative to WT: E138K/M184V vs WT; for IC50: ± SD, n=4. As to the method: as §1, §2, §3
The subject of experiment [10] is HIV-1 RT mutant K101P. As to the kind of experiment: single round infection assay, K101P. Type of experiment: cell-based. As to conditions: Human immunodeficiency virus 1.
For experiment [11], the system named is HIV-1 RT mutant Y181I. Nature of the experiment: single round infection assay, Y181I. The experiment is classed as cell-based. The following applies: for IC50: Human immunodeficiency virus 1; for fold-change of IC50 of the mutant relative to WT: Y181I vs WT.
Experiment [12] relates to WT HIV-1. As to conditions: previous study; cited from earlier work.
In experiment [13] the test system is HIV-1 RT mutant K103N. Also noted: method as in PMID 23217210. The following applies: previous study; cited from earlier work.
The subject of experiment [14] is HIV-1 RT mutant Y181C. On the set-up: method as in PMID 23217210. As to conditions: previous study; cited from earlier work.
Setting [15] is: Human immunodeficiency virus 1, E138K.
[16] abbreviates: Human immunodeficiency virus 1, E138K/M184V.
Where [17] appears, read: Human immunodeficiency virus 1, M230L.

The term IC50 denotes the midpoint of a concentration-inhibition curve. On to `COc1ccc(Nc2nc(Nc3c(C)cc(/C=C/C#N)cc3C)nc3[nH]cnc23)cc1` [compound 16], for which the IC50 in experiment [1] is 0.17 ± 0.01 nM; in [2] it was 0.37 ± 0.08 nM; in [3] it was 0.17 ± 0.05 nM; in experiment [6] (E138K), 1.9 ± 0.01 nM; in experiment [6] (setting [15]), less than 2.5 nM; in experiment [9] (E138K/M184V) it was 1.7 ± 0.35 nM. The concentration for half-maximal inhibition (IC50) was less than 2.5 nM in experiment [9] (setting [16]); greater than 100 nM in experiment [10]; 63.2 nM in experiment [11]; less than 7 nM in experiment [12]; less than 7 nM in experiment [13]; less than 7 nM in experiment [14]. The “fold-change of IC50 of the mutant relative to WT” value is 2 in experiment [2] (G190A vs WT); 15 in experiment [4]; 4 in [5]; 11 in experiment [6]; less than 2 in experiment [7]; 5 in experiment [8]. For the same compound, the “fold-change of IC50 of the mutant relative to WT” value in experiment [9] was 10; in experiment [11], 372.

Regarding `Cc1cc(/C=C/C#N)cc(C)c1Nc1nc(Nc2ccc(F)cc2)c2nc[nH]c2n1` [compound 17], the IC50 in [1] is 2.2 ± 0.4 nM; in [2], 1.6 ± 0.3 nM; in experiment [3] it was 0.74 ± 0.11 nM; in [4] (setting [17]) it was 21.1 nM; in [6] (setting [15]), 13.5 nM; in experiment [7] (Human immunodeficiency virus 1, K101E/M184I, ± SD, n=4) it was 15 nM. Also, the IC50 in experiment [8] (Human immunodeficiency virus 1, E138K/M184I, ± SD, n=4) was 5.2 ± 1.1 nM; in experiment [9] (setting [16]) it was 2.3 ± 0.02 nM; in experiment [10], 100 nM; in [11], 78.9 nM; in experiment [12] it was less than 7 nM; in experiment [13] it was less than 7 nM. The IC50 in [14] was less than 7 nM. Further, the “fold-change of IC50 of the mutant relative to WT” value in experiment [4] is on record as 10; in experiment [5], 19; in experiment [6], 6; in experiment [7] it was 7; in [8], 2; in [9] it was less than 2. The “fold-change of IC50 of the mutant relative to WT” value in [11] was found to be 36.

For `Cc1cc(/C=C/C#N)cc(C)c1Nc1nc(Nc2ccc3scnc3c2)c2nc[nH]c2n1` [compound 21], the IC50 is 0.41 ± 0.1 nM in experiment [1]; 0.3 ± 0.12 nM in experiment [2]; 0.2 ± 0.04 nM in [3]; less than 6.1 nM in experiment [4] (setting [17]); 6.1 ± 0.14 nM in experiment [4] (M230L); 2.4 ± 0.4 nM in experiment [6] (E138K). The IC50 in [6] (setting [15]) is less than 2.5 nM; in [9] (E138K/M184V), 2.3 ± 0.7 nM; in experiment [9] (setting [16]), less than 2.5 nM; in [10] it was greater than 100 nM; in experiment [11], greater than 100 nM; in experiment [12] it was less than 7 nM. The half-maximal inhibitory concentration (IC50) in experiment [13] and in experiment [14] was less than 7 nM in each case. For the same compound, the “fold-change of IC50 of the mutant relative to WT” value in experiment [4] is 15; in experiment [5], 27; in experiment [6], 6; in experiment [7], 2; in [8], 2; in experiment [9], 6.
